The values that follow come from US8372831B2, “Isoxazoline linked pyrrolo[2,1-c][1,4]benzodiazepine hybrids as potential anticancer agents and the process for preparation thereof” (Council of Scientific & Industrial Research, priority 2008, dated 2013).

The test system of one experiment is CAKI-1. The experiment is described as follows: NCI SRB cytotoxicity, CAKI-1 (renal). The format is cell-based, human. As to conditions: 48 hrs exposure. How it is done:
(§1) Biological Activity: The in vitro biological activity studies were carried out at the National Cancer Institute, Maryland, USA.
(§2) The C8-linked isoxazoline-PBD hybrids have been tested against sixty human tumour cell lines derived from nine cancer types (leukemia, non-small cell lung cancer, colon cancer, CNS cancer, melanoma, ovarian cancer, renal cancer, prostate cancer and breast cancer) as per NCI protocol. For each compound, dose response curves for individual cell lines have been measured at a minimum of five concentrations at 10 fold dilutions. A protocol of 48 hrs continuous drug exposure has been used, and a sulforhodamine B (SRB) protein assay was used to estimate cell viability or growth. The concentration for 50% cell growth inhibition (GI50), total cell growth inhibition (TGI, 0% growth) and 50% cell death (LC50, […]) compared with the control has been calculated (FIG. 2).
(§3) Compound 5b and 9b have been evaluated for in vitro cytotoxicity in sixty cell lines from nine human cancer types of lung (Hop-62, NCI-H226, NCI-H522), leukemia (K-562, SR), colon (HCT-116, HCT-15, HCC-2998), CNS(SF-539), melanoma (SK-MEL-5, UACC-62, M14), ovarian (IGROV1), renal (A498), prostate (PC3) breast (BT-549, MDA-MB-435, HS578T) origin. The results are expressed as percent of cell growth determined relative to that of untreated control cells (Table 1).

A further experiment deals with A498. The experiment can be described thus: NCI SRB cytotoxicity, A498 (renal). Type of experiment: cell-based, human. As to conditions: 48 hrs exposure. As for the experimental part:
as §1, §2, §3

In general, GI50 refers to the concentration giving 50% growth inhibition. Read a low GI50 as greater sensitivity of the cells. `COc1cc(C2=NOC(c3cc(OC)c(OC)c(OC)c3)C2)ccc1OCCCCOc1cc2c(cc1OC)C(=O)N1CCC[C@H]1C=N2` (stereo partly drawn) [Compound 5b, (11aS)-7-(methyloxy)-8-(4-[(2-(methyloxy)-4-5-[3,4,5-tri(methyloxy)phenyl]-4,5-dihydro-3-isoxazolylphenyl)oxy]butyloxy)-2,3,5,11a-tetrahydro-1H benzo[e]pyrrolo[1,2-a][1,4]diazepin-5-one]: the GI50 with CAKI-1 worked out at 250 nM. `COc1ccc(C2CC(c3ccc(OC)c(OC)c3OC)=NO2)cc1OCCCCOc1cc2c(cc1OC)C(=O)N1CCC[C@H]1C=N2` (stereo partly drawn) [Compound 9b, (11aS)-7-(methyloxy)-8-(4-[(2-(methyloxy)-5-3-[2,3,4-tri(methyloxy)phenyl]-4,5-dihydro-5-isoxazolylphenyl)oxy]butyloxy)-2,3,5,11a-tetrahydro-1H-benzo[e]pyrrolo[1,2-a][1,4]diazepin-5-one]: the GI50 stood at 3090 nM with CAKI-1 and 1720 nM with A498.
